According to ChEMBL document CHEMBL5291721, “A preclinical secondary pharmacology resource illuminates target-adverse drug reaction associations of marketed drugs” (Nat Commun, 2023):
Where a SMILES comes first, the peptide text is derived from it. [ ]: non-standard residue; d: D form. pGlu = O=C1CC[C@@H](C(=O)O)N1; Thz = O=C(O)[C@@H]1CSCN1

Tests used:
[1] = biological target: T1, Alpha-2A adrenergic receptor (Homo sapiens, UniProt P08913); assay type: functional, cell-based
T1 sequence (P08913 whole entry): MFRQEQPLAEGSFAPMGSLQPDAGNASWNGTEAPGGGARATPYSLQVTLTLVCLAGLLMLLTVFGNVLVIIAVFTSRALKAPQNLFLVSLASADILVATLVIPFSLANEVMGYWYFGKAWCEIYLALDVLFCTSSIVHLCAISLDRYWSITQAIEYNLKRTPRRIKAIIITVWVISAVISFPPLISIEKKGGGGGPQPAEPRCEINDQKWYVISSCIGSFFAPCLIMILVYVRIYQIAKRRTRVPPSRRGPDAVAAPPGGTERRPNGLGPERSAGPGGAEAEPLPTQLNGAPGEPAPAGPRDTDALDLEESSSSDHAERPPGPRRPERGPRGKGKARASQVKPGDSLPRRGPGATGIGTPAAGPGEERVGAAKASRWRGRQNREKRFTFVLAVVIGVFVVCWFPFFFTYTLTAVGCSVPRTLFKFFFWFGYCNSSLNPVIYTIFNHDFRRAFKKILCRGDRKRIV

[2] = biological target: T2, Type-1 angiotensin II receptor (Homo sapiens, UniProt P30556)
T2 sequence (P30556 whole entry): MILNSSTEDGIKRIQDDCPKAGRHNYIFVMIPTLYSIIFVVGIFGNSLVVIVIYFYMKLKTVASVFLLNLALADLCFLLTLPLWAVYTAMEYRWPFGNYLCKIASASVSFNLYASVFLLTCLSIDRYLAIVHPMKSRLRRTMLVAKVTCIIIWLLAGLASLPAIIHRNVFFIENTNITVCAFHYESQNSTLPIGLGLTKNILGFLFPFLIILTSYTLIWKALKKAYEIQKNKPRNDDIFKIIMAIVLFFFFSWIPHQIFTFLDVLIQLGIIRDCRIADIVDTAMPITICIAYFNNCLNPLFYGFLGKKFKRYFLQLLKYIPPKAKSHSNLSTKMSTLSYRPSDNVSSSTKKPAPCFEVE

[3] = biological target: T3, Muscarinic acetylcholine receptor M2 (Homo sapiens, UniProt P08172); assay type: functional, cell-based
T3 sequence (P08172 whole entry): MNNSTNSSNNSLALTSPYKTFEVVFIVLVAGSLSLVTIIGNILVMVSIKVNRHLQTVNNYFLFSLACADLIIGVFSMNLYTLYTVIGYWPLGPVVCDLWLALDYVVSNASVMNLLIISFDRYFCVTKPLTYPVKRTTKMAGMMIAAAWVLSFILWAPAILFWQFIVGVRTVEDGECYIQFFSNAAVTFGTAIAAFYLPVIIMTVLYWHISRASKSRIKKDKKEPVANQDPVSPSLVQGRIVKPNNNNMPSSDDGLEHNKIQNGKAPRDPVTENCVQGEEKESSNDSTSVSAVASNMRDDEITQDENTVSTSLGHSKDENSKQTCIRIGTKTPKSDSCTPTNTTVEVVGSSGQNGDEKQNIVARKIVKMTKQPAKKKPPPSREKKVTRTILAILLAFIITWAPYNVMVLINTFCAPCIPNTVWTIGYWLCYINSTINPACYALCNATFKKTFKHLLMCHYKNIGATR

[4] = biological target: Muscarinic acetylcholine receptor M3 (Homo sapiens, UniProt P20309)
Muscarinic acetylcholine receptor M3, sequence (P20309 whole entry): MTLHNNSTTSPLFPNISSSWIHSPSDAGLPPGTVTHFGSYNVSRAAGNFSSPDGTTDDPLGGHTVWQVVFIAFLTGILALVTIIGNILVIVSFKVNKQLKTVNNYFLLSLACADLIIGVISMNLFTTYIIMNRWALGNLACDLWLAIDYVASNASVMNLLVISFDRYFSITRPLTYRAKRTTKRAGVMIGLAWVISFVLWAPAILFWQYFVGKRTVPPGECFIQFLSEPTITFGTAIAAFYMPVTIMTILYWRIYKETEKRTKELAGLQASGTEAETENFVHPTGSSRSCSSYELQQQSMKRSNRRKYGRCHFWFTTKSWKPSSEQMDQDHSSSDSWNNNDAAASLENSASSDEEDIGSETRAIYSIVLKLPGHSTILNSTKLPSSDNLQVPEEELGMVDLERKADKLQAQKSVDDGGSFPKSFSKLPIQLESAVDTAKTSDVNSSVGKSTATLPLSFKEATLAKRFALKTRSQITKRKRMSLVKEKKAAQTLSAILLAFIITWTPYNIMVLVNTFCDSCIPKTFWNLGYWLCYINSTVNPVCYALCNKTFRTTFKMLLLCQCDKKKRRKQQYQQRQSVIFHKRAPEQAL

D(1A) dopamine receptor = D(1A) dopamine receptor (Homo sapiens, UniProt P21728); assay type: functional, cell-based
D(1A) dopamine receptor, sequence (P21728 whole entry): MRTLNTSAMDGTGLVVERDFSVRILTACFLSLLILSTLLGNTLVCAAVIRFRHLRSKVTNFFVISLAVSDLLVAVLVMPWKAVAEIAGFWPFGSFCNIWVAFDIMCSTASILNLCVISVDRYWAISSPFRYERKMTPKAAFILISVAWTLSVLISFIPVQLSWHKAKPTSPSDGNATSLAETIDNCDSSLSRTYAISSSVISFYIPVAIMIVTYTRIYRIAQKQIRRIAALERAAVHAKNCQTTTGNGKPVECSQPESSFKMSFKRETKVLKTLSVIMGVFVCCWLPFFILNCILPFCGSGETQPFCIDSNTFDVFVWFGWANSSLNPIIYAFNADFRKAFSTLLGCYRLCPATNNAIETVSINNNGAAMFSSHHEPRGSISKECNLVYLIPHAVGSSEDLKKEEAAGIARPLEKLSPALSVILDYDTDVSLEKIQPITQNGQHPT

Endothelin-1 receptor = biological target: T4, Endothelin-1 receptor (Homo sapiens, UniProt P25101)
T4 sequence (P25101 whole entry): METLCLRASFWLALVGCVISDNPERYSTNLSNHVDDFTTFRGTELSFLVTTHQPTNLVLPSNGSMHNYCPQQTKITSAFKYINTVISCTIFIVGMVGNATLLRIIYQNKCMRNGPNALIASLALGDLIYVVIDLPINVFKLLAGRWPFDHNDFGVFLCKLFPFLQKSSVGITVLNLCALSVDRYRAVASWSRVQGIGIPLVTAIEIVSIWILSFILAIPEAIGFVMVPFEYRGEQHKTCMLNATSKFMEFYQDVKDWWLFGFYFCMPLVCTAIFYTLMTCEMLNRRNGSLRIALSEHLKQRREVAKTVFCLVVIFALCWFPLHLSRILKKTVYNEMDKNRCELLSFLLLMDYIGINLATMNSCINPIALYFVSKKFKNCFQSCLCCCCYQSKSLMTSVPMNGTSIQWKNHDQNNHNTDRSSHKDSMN

[5] = biological target: Glutamate receptor ionotropic, NMDA 1 (Rattus norvegicus, UniProt P35439)
[6] = biological target: 5-hydroxytryptamine receptor 2B (Homo sapiens, UniProt P41595); assay type: functional, cell-based
5-hydroxytryptamine receptor 2B, sequence (P41595 whole entry): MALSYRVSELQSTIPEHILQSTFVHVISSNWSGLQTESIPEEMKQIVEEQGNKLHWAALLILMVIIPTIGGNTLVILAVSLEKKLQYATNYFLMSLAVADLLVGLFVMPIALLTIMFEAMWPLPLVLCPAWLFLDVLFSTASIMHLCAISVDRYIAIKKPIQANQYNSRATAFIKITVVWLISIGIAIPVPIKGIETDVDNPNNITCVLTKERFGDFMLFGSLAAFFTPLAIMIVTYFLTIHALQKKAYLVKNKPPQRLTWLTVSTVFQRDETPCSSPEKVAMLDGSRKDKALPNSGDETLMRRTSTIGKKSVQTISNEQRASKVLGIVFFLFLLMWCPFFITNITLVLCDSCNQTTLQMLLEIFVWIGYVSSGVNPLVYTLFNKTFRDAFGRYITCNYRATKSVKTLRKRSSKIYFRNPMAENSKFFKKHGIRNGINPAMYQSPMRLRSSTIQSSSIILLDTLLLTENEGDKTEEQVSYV

[7] = biological target: T5, 5-hydroxytryptamine receptor 2C (Homo sapiens, UniProt P28335)
T5 sequence (P28335 whole entry): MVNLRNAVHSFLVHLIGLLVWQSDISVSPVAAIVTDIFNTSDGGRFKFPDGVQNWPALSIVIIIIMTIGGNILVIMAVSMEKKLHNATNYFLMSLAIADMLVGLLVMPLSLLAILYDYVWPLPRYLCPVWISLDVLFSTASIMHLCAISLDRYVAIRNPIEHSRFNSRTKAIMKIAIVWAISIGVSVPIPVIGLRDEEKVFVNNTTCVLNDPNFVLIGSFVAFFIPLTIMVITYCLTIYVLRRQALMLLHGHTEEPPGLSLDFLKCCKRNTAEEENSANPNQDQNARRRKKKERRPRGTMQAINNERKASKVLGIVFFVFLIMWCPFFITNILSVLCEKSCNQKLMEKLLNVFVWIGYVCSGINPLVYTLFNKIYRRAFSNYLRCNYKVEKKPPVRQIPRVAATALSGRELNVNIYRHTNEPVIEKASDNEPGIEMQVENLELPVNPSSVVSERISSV

Melanocortin receptor 3 = Melanocortin receptor 3 (Homo sapiens, UniProt P41968)
Melanocortin receptor 3, sequence (P41968 whole entry): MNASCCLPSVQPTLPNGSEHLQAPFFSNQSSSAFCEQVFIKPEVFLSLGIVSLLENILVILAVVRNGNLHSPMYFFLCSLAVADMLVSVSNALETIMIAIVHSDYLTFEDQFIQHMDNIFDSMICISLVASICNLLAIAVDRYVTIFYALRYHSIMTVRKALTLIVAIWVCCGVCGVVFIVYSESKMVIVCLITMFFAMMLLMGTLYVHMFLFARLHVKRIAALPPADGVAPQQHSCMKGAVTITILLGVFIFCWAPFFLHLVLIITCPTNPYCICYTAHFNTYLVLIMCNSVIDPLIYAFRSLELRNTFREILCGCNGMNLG

[8] = biological target: Delta-type opioid receptor (Homo sapiens, UniProt P41143)
Delta-type opioid receptor, sequence (P41143 whole entry): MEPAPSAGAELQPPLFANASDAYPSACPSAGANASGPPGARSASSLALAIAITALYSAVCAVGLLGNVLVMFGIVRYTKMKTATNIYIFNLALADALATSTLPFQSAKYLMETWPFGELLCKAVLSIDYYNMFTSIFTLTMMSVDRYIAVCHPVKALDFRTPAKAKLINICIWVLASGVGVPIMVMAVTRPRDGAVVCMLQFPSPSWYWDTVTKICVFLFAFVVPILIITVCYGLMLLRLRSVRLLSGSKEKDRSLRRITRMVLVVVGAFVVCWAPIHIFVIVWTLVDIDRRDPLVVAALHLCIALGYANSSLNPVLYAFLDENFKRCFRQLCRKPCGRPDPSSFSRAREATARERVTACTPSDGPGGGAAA

Thromboxane A2 receptor = biological target: T6, Thromboxane A2 receptor (Homo sapiens, UniProt P21731)
T6 sequence (P21731 whole entry): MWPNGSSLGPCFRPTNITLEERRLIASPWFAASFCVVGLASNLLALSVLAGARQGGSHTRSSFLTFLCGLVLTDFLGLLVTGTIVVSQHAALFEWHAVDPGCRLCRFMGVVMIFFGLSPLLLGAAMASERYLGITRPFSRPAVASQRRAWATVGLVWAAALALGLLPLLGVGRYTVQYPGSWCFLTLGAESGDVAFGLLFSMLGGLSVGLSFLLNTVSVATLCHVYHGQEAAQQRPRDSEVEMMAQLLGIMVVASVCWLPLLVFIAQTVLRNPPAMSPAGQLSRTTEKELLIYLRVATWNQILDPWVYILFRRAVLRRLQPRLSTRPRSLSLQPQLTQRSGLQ
Also: assay procedure not described here.

Compound | AC50 [1] | AC50 [2] | AC50 [3] | AC50 [4] | AC50 (D(1A) dopamine receptor) | AC50 (Endothelin-1 receptor) | AC50 [5] | AC50 [6] | AC50 [7] | AC50 (Melanocortin receptor 3) | AC50 [8] | AC50 (Thromboxane A2 receptor)
Clc1ccc(CCC(Cn2ccnc2)Sc2c(Cl)cccc2Cl)cc1 (stereo not drawn) [BUTOCONAZOLE] | > 30 µM | 30 µM | > 30 µM | 21 µM | > 30 µM | > 30 µM | > 30 µM | > 30 µM | > 30 µM | > 30 µM | > 30 µM | > 30 µM
Oc1ccc(CCNCCCCCCNCCc2ccccc2)cc1O [DOPEXAMINE] | > 30 µM | > 30 µM | > 30 µM | > 30 µM | 23 µM | > 30 µM | > 30 µM | > 30 µM | > 30 µM | > 30 µM | > 30 µM | > 30 µM
CCCCOc1ccc(C(=O)CCN2CCCCC2)cc1 [DYCLONINE] | > 10 µM | > 30 µM | > 10 µM | > 10 µM | > 10 µM | > 30 µM | > 10 µM | > 10 µM | > 10 µM | > 30 µM | > 10 µM | > 30 µM
CCc1cc2c(s1)-n1c(C)nnc1CN=C2c1ccccc1Cl [ETIZOLAM] | > 30 µM | > 30 µM | > 30 µM | > 30 µM | > 30 µM | > 30 µM | > 30 µM | > 30 µM | > 30 µM | > 30 µM | > 30 µM | > 30 µM
CC/C=C\C/C=C\C/C=C\C/C=C\C/C=C\CCCC(=O)OCC [ICOSAPENT ETHYL] | > 30 µM | > 30 µM | > 30 µM | > 30 µM | > 30 µM | > 30 µM | > 30 µM | > 30 µM | > 30 µM | > 30 µM | > 30 µM | > 30 µM
COc1ccc(CN2CCN(C(c3ccc(F)cc3)c3ccc(F)cc3)CC2)c(OC)c1OC [LOMERIZINE] | > 30 µM | > 30 µM | 24 µM | > 30 µM | > 30 µM | > 30 µM | > 30 µM | 5.9 µM | 16 µM | > 30 µM | > 30 µM | > 30 µM
CN1CCN=C(c2ccccc2)c2cc(Cl)ccc21 [MEDAZEPAM] | > 30 µM | > 30 µM | > 30 µM | > 30 µM | > 30 µM | > 30 µM | > 30 µM | > 30 µM | 25 µM | > 30 µM | > 30 µM | > 30 µM
O=C(NCCO[N+](=O)[O-])c1cccnc1 [NICORANDIL] | > 30 µM | > 30 µM | > 30 µM | > 30 µM | > 30 µM | > 30 µM | > 30 µM | > 30 µM | > 30 µM | > 30 µM | > 30 µM | > 30 µM
COc1cc2[nH]c(C)c(CCN3CCN(c4ccccc4)CC3)c2cc1OC [OXYPERTINE] | 7.4 µM | > 30 µM | > 30 µM | > 30 µM | > 30 µM | > 30 µM | > 30 µM | 0.12 µM | 0.49 µM | > 30 µM | > 30 µM | > 30 µM
OC[C@H]1O[C@@H](Oc2cc(O)cc(/C=C/c3ccc(O)cc3)c2)[C@H](O)[C@@H](O)[C@@H]1O [PICEID] | > 30 µM | > 30 µM | > 30 µM | > 30 µM | > 30 µM | > 30 µM | > 30 µM | > 30 µM | > 30 µM | > 30 µM | > 30 µM | > 30 µM
O=C1CC[C@@H](C(=O)N2CSC[C@H]2C(=O)O)N1 [PIDOTIMOD] ([pGlu]-[Thz]-OH) | > 30 µM | > 30 µM | > 30 µM | > 30 µM | > 30 µM | > 30 µM | > 30 µM | > 30 µM | > 30 µM | > 30 µM | > 30 µM | > 30 µM
CCC(NC(C)C)C(O)c1ccc(O)c2[nH]c(=O)ccc12 (stereo not drawn) [PROCATEROL] | > 30 µM | > 30 µM | > 30 µM | > 30 µM | > 30 µM | > 30 µM | > 30 µM | > 30 µM | > 30 µM | > 30 µM | > 30 µM | > 30 µM
CCC(=O)O[C@](Cc1ccccc1)(c1ccccc1)[C@H](C)CN(C)C [PROPOXYPHENE] | > 10 µM | > 30 µM | > 10 µM | 16 µM | > 10 µM | > 30 µM | > 10 µM | > 10 µM | > 30 µM | > 30 µM | 11 µM | > 30 µM
CCCN1CCCC[C@H]1C(=O)Nc1c(C)cccc1C [ROPIVACAINE] | > 30 µM | > 30 µM | > 30 µM | > 30 µM | > 30 µM | > 30 µM | > 30 µM | > 30 µM | > 30 µM | > 30 µM | > 30 µM | > 30 µM
